This note sets out measurements from patent US6410547B1, “Phenylpyridine derivatives useful as phosphodiesterase inhibitors” (Novartis AG, priority 1996, dated 2002).

Where a name gives a salt, the structure may show the parent alone.

In general, melting point refers to the temperature of the solid-liquid transition. For the molecule `COc1ccc(-c2ccc(C(=O)O)cc2)cc1-c1cccc(C#N)c1` [Example 23, 4′-Methoxy-3′-(3-cyanophenyl)-[1,1′-biphenyl]-4-carboxylic acid], the melting point lay in the range of 280 to 285 °C.
Turning to `COc1ccc(-c2ccc(C(=O)O)c(C)c2)cc1-c1cccc([N+](=O)[O-])c1` [Example 20, 4′-Methoxy-3-methyl-3′-(3-nitrophenyl)-[1,1′-biphenyl]-4-carboxylic acid], the melting point fell in the range of 278 to 281 °C.
Under `COc1ccc(-c2ccncc2)cc1-c1ccc(F)c(Cl)c1` (as salt: hydrochloride) [Example 11, 4-[2-(Methoxy)-3′-(chloro)4′-(fluoro)biphenyl-5-yl]pyridine] stands 115 °C; under `COc1ccc(-c2ccc(C(N)=O)c(C)c2)cc1-c1cccc([N+](=O)[O-])c1` [Example 26, 4′-Methoxy-3-methyl-3′-(3-nitrophenyl)-[1,1′-biphenyl]-4-carboxamide], 179 to 184 °C; under `CCOC(=O)c1ccc(-c2ccc(OC)c(-c3cccc([N+](=O)[O-])c3)c2)cc1` [Example 13, 4′-Methoxy-3′-(3-nitrophenyl)-[1,1′-biphenyl]-4-carboxylic acid, ethyl ester], 106 to 108 °C.
Then `COc1ccc(-c2cccc(C(=O)O)c2)cc1-c1cccc([N+](=O)[O-])c1` [Example 19, 4′-Methoxy-3′-(3-nitrophenyl)-[1,1′-biphenyl]-3-carboxylic acid], with 223 to 228 °C.
`COc1ccc(-c2ccc(C(N)=O)cc2)cc1-c1cccc([N+](=O)[O-])c1` [Example 24, 4′-Methoxy-3′-(3-nitrophenyl)-[1,1′-biphenyl]-4-carboxamide] displayed a melting point of 201 to 205 °C.
Then `COc1ccc(-c2ccc(C(=O)O)cc2)cc1-c1ccc2nonc2c1` [Example 21, 3′-(5-Benzofurazanyl)-4′-methoxy-[1,1′-biphenyl]-4-carboxylic acid], with greater than 300 °C.
As to `COc1ccc(-c2ccncc2)cc1-c1ccc2nonc2c1` [Example 5, 4-[4-Methoxy-3-(5-benzofurazanyl)phenyl]pyridine], the melting point lay in the range of 187 to 192 °C.
Then `COc1ccc(-c2ccc(C(=O)O)cc2)cc1-c1cccc(Cl)c1` [Example 22, 4′-Methoxy-3′-(3-chlorophenyl)-[1,1′-biphenyl]-4-carboxylic acid], with 250 to 252 °C.
Under `CNC(=O)c1ccc(-c2ccc(OC)c(-c3cccc([N+](=O)[O-])c3)c2)cc1` [Example 27, N-Methyl-4′-methoxy-3′-(3-nitrophenyl)-[1,1′-biphenyl]-4-carboxamide] stands 171 to 172 °C; under `COc1ccc(-c2ccc(C(=O)OCC(C)(C)C)cc2)cc1-c1ccc2nonc2c1` [Example 17, 3′-(5-Benzofurazanyl)-4′-methoxy-[1,1′-biphenyl]-4-carboxylic acid, 2,2-dimethylpropyl ester], 131 to 136 °C.
In the case of `CCOC(=O)c1cccc(-c2ccc(OC)c(-c3cccc([N+](=O)[O-])c3)c2)c1` [Example 14, 4′-Methoxy-3′-(3-nitrophenyl)-[1,1′-biphenyl]-3-carboxylic acid, ethyl ester], the melting point is 87 to 89 °C.
Then `COc1ccc(-c2ccncc2)cc1-c1cccc(Cl)c1` (as salt: hydrochloride) [Example 7, 4-[2-(Methoxy)-3′-(chloro)biphenyl-5-yl]pyridine], with 156 to 210 °C; and `CCOC(=O)c1ccc(-c2ccc(OC)c(-c3cccc([N+](=O)[O-])c3)c2)cc1C` [Example 15, 4′-Methoxy-3-methyl-3′-(3-nitrophenyl)-[1,1′-biphenyl]-4-carboxylic acid, ethyl ester], with 88 to 90 °C.
`COc1ccc(-c2ccncc2)cc1-c1ccc(Oc2ccccc2)cc1` (as salt: hydrochloride) [Example 10, 4-[2-(Methoxy)4′-(phenoxy)biphenyl-5-yl]pyridine] showed a melting point of 173 to 218 °C.
Turning to `COc1ccc(-c2ccncc2)cc1-c1cccc(Oc2ccccc2)c1` (as salt: hydrochloride) [Example 9, 4-[2-(Methoxy)-3′-(phenoxy)biphenyl-5-yl]pyridine], the melting point was 184 to 204 °C.
Then `COc1ccc(-c2cccc(C(N)=O)c2)cc1-c1cccc([N+](=O)[O-])c1` [Example 25, 4′-Methoxy-3′-(3-nitrophenyl)-[1,1′-biphenyl]-3-carboxamide], with 118 to 120 °C; and `COc1ccc(-c2ccc3nccn3c2)cc1-c1ccc2nonc2c1` [Example 28, 6-[4-Methoxy-3-(5-benzofurazanyl)phenyl]imidazo[1,2-a]pyridine], with 190 to 196 °C.
`CCOC(=O)c1ccc(-c2ccc(OC)c(-c3ccc4nonc4c3)c2)cc1` [Example 16, 3′-(5-Benzofurazanyl)-4′-methoxy-[1,1′-biphenyl]-4-carboxylic acid, ethyl ester] registered a melting point of 166 to 168 °C.
